Results on 119 sequences are retold here after the OligoGym collection.

“And” between values parts separate entries of the source, which are not always exact repeats. Identical values can stand only once. These antisense oligonucleotides have a phosphorothioate backbone; sugars and methylation of C are not fully specified. A value given as a limit tells only on which side of the number the result lay.
Also: test concentration or dose not given here.

One data set has as its target ICAM1. As to conditions: ASO.
Take AACCTCGCGC: the remaining target (mRNA or protein) (fraction of control) worked out at 0.96. The same measure, in the same setting: to ACACATACACACACACACACA belongs 0.54; to AGCCACCTGGGGGCCAAGGGG, not below 1; to AGCCATAGCGAGGC, 0.64. Still for that read-out and setting: to AGCCATAGCGAGGCTGAGGTT belongs 0.2; to AGCGAGGCTG, 0.97; to AGCGAGGCTGAG, 0.79. On the same count and under the same terms, to AGCTGCGCTGCTACCTGCAC belongs 0.25; to ATAGCGAGGC, not below 1; to CAAGTGTGCATCCCCCAGGC, 0. CACATGTCTATGGAGGG came in with a remaining target (mRNA or protein) (fraction of control) of 0.89. In the case of CATAGCGAGGCTGAGGTTGC, the remaining target (mRNA or protein) (fraction of control) turned out to be 0.39. On the same count and under the same terms, to CCAGAGGAAGTGGCTGAGGG belongs 0.35. Still for that read-out and setting: to CCATAGCGAGGC belongs not below 1.

Take CCCCCACCACTTCCCCTCTC: the remaining target (mRNA or protein) (fraction of control) was determined as 0. Same read-out and setting: to CCCCCACCACTTCCCCTCTCA belongs 0.07.

CCCCGACTCACCTGGGAACAG returned a remaining target (mRNA or protein) (fraction of control) of 0.66. In the case of CCCGGAAACCTCGCGC, the remaining target (mRNA or protein) (fraction of control) was 0.88. On the same count and under the same terms, to CCTGTCCCGGGATAGGTTCA belongs 0.4; to CGATGGGCAGTGGGAAAG, 0.95; to CGGGGGCTGCTGGGAGC, 0.76. Still for that read-out and setting: to CTATGGAGGGCCACTTC belongs 0.39; to CTCATCCAGCAGGCTCAGGG, 0.75; to CTCTGAGTAGCAGAGG, 0.76.

The sequence CTCTGAGTAGCAGAGGAGCTC registered a remaining target (mRNA or protein) (fraction of control) of 0.17. For the sequence CTGAGGTTGC, the remaining target (mRNA or protein) (fraction of control) turned out to be 0.95. Same read-out and setting: to GACACTCAATAAATAGCTGGT belongs 0.5; to GAGGAGCTCAGCGTCGACTG, 0.83 and ≥ 1. On the same count and under the same terms, to GAGGCTGAGGTGGGAGGA belongs 0.98. Same read-out and setting: to GAGTAGCAGAGGAGC belongs 0.61; to GATGCTACACATGTC, 0.58. The sequence GCCCATTGCAGGGCCAGGGC had a remaining target (mRNA or protein) (fraction of control) of 0. In turn, GCGTCGACTGGGGCGCGTGAT registered a remaining target (mRNA or protein) (fraction of control) of 0.95. The same measure, in the same setting: to GCTACACATGTCTATGGAGGG belongs 0.35; to GCTTTCCCGGAAA, 0.82. On the same count and under the same terms, to GCTTTCCCGGAAACCTCGCGC belongs 0.48; to GGAAACCTCGCGC, 0.91. The same measure, in the same setting: to GGAGCCATAGCGAGGC belongs 0.35; to GGAGCTCAGCGTCGA, 0.85; to GGCAGAAATGTATGTGGGTGG, 0.68.

In the case of GGCTGAGGTTG, the remaining target (mRNA or protein) (fraction of control) amounted to 0.9. Same read-out and setting: to GGGCCACTTCTTCTGTAA belongs 0.33; to GGGCGCGTGATCCTTATAGC, 0.8.

Sequence GGGGCGGTGCTGCTTTCCCGG yielded a remaining target (mRNA or protein) (fraction of control) not below 1. Same read-out and setting: to GGGTTGAAGCCATTGCAGGG belongs 0.45; to GGTTGCAACTCTGAG, 0.36. On the same count and under the same terms, to TCTGAGTAGCAGAGGAGCTCA belongs 0.3; to TCTGAGTAGCAGAGGAGCTCAG, 0.33. Take TGATCCTTTATAGCGCTAGCC: the remaining target (mRNA or protein) (fraction of control) is 0.9. The same measure, in the same setting: to TGCATCCCCCAGGCCACCAT belongs 0; to TGCCAGTCCACATAGTGTTT, 0.25. TGCCCATCAGGGCAGTTTGA: the remaining target (mRNA or protein) (fraction of control) was 0.4. Same read-out and setting: to TGCTTACCCTCCCACAGCAG belongs 0.1.

The sequence TGGGAGCCATAGCGAG came in with a remaining target (mRNA or protein) (fraction of control) of 0.55. The same measure, in the same setting: to TGGGAGCCATAGCGAGGC belongs 0.38. With TTGAGAAAGCTTTATTAACT, the remaining target (mRNA or protein) (fraction of control) is not below 1. Still for that read-out and setting: to TTGGGACAATGTCTCAGCTT belongs 0.25.

In the next data set the target is PDPK1. The following applies: ASO.
GGACTTCTCCGTGAGCAG returned a remaining target (mRNA or protein) (fraction of control) of 0.28. The same measure, in the same setting: to GGAGGCTGGGCATGCTGC belongs 0.16; to GGTACAGGTCTCATCGAA, 0.1; to GGTCTCTTGCCTTAGGGA, 0.37. Still for that read-out and setting: to GGTGTGCTTTAAGAGGTC belongs 0.6. GTCCCTGTGAATGATGCC: the remaining target (mRNA or protein) (fraction of control) was 0.24.

The sequence GTGAGGAGGAGGACGAAG came in with a remaining target (mRNA or protein) (fraction of control) of 0.7. Same read-out and setting: to GTGCTGGACTCAGTCTGG belongs 0.51; to GTTCAAAGGAGTTCGAGT, 0.5. The same measure, in the same setting: to GTTTCCGCCAGCCTGCTT belongs not below 1. With TAAACCCTTCCGCTTATC, the remaining target (mRNA or protein) (fraction of control) is not below 1. In the case of TAAAGCTTAACAAAGAAG, the remaining target (mRNA or protein) (fraction of control) is not below 1.

As for TAAGTCCAGTTCAAAGGA, the remaining target (mRNA or protein) (fraction of control) was determined as 0.75. Same read-out and setting: to TATGATATGTCGCTTCTC belongs 0.42; to TCCTGTTAGGCGTGTGGA, 0.53; to TCTGGAGAAACGTACTGC, not below 1. Same read-out and setting: to TGAGCAGCTCTGGAGAAA belongs 0.85. Still for that read-out and setting: to TGGACAAAGAAAGTTTTA belongs not below 1; to TGGATGTGCATATCTTCA, 0.81. For TGGCATCTAAAACCAAAA, the remaining target (mRNA or protein) (fraction of control) was not below 1.

The sequence TGGCTGGCAGGTGGTCTG had a remaining target (mRNA or protein) (fraction of control) of 0.2. The same measure, in the same setting: to TTGCTGTTCCAAAATCTG belongs not below 1; to TTGGCCCTGGCTTGTTTG, 0.23. TTTAAGTAGTTCTCCATT showed a remaining target (mRNA or protein) (fraction of control) of 0.39. On the same count and under the same terms, to TTTATGATATGTCGCTTC belongs not below 1; to TTTGTTGACAGGATCCAC, 0.72.

The next data set has as its target VCAM1. As to conditions: ASO.
For AACATCTCCGTACCATGCCA, the remaining target (mRNA or protein) (fraction of control) was determined as 0.25. On the same count and under the same terms, to AACCCAGTGCTCCCTTTGCT belongs 0.21; to AACCCTTATTTGTGTCCCACC, 0.09; to AACTCCTCCAGTTCTCTCATC, 0.12.

ACCTGTGTGTGCCTGGGAGGG showed a remaining target (mRNA or protein) (fraction of control) of 0.26. ACGACCATCTTCCC registered a remaining target (mRNA or protein) (fraction of control) of 0.51. In the case of CACGAGGCCACCACTCATCTC, the remaining target (mRNA or protein) (fraction of control) was 0.05.

In turn, CAGATCAGGGAACTCCTC registered a remaining target (mRNA or protein) (fraction of control) of 0.55. In turn, CAGCCTGCCTTACTGTGGGC came in with a remaining target (mRNA or protein) (fraction of control) of 0.67.

For CATCTCGATTTCTGG, the remaining target (mRNA or protein) (fraction of control) was determined as 0.47. Still for that read-out and setting: to CATCTTCCCAGGCAT belongs 0.45; to CCACCACTCATCTCG, 0.26; to CCCAGGCATTTTAAG, 0.78.

Sequence CCCAGGCATTTTAAGTTGCTG displayed a remaining target (mRNA or protein) (fraction of control) of 0.33. Still for that read-out and setting: to CCCATTCACGAGGCCACC belongs 0.11; to CCCGGCATCTTTACAAAACC, 0.45. Take CCCTTATTTGTGTCCC: the remaining target (mRNA or protein) (fraction of control) was determined as 0.37.

In turn, CCTCCAGTTCTCTC had a remaining target (mRNA or protein) (fraction of control) of 0.32.

As to CCTGAAGCCAGTGAGG, the remaining target (mRNA or protein) (fraction of control) was 0.61. Still for that read-out and setting: to CCTGAAGCCAGTGAGGCCCG belongs 0.42; to CCTGGGAGGGTATTC, 0.39. The same measure, in the same setting: to CCTGTGTGTGCCTGGGAGGG belongs 0.88; to CGACCATCTTCCCAGGCATTT, 0.2; to CGAGGCCACCACTC, 0.16.

Turning to CGATGCAGATACCGCGGAGT, the remaining target (mRNA or protein) (fraction of control) is 0.37.

In turn, CGTGATGAAGAAAATAGTGGTT yielded a remaining target (mRNA or protein) (fraction of control) of 0.49. Same read-out and setting: to CTCTCATCTTGATGGC belongs 0.55; to CTGTGTGTCCTGTCTCCGCT, 0.27; to CTTGAACAATTAATTCCACCT, 0.37. The same measure, in the same setting: to CTTTGACTTCTTGCTCACAGC belongs 0.07; to GCAATCTTGCTATGGCATAA, 0.48; to GCCAGTGAGGCCCG, 0.35. Still for that read-out and setting: to GCCTGGGAGGGTATTCAGCT belongs 0.58.

GCCTGGGAGGGTATTCAGCTC had a remaining target (mRNA or protein) (fraction of control) of 0.3. In turn, GGCATTTTAAGTTGCTGTCG came in with a remaining target (mRNA or protein) (fraction of control) of 0.34.

Turning to GGCCACATTGGGAAAGTTGC, the remaining target (mRNA or protein) (fraction of control) was 0.29.
